According to US7119208B2, “Anti-sickling agents” (Virginia Commonwealth University, priority 2003, dated 2006):
Where “and” joins values, the source holds several entries; their conditions need not be identical. Identical values can stand only once. Entries after “also recorded” stand apart in the source; their conditions may differ.

What was measured:
AA cells = assay: Oxygen equilibrium studies with normal whole blood; type: cell-based, human; conditions: for n50 (Hill coefficient at 50% saturation in the presence of compound) / ΔP50 = P50d − P50c / P50d (value in the presence of compound): thiophene aldehydes, 5 mM, whole blood; for P50d (value in the presence of compound): repeat measurements; for P50: AA cells 40% hematocrit; for effect on the OEC of whole blood: normal adult whole blood, multi-point tonometry, in vitro
SS cells [1] = assay: Antisickling studies with homozygous sickle red blood cells; type: cell-based, human; conditions: for predicted antisickling activities: not determined, predicted from structure-activity relationships
SS cells [2] = assay: Oxygen equilibrium studies with homozygous sickle red blood cells; type: cell-based, human; conditions: 5 mM compound; for SS cells P50: SS cells 10% hematocrit; for SS cells ΔP50: treated minus control
Experimental: SS cells were suspended in PBS to a final hematocrit of 10%. […] A 40 uL aliquot of this suspension was added to 4 ml Hemox buffer and subjected to oxygen equilibrium analysis (37° C.) using a Hemox-Analyzer (TCS Scientific Corp., Southampton, Pa.) (Asakura, 1979).

HbS [3] = biological target: T1, HbS (Homo sapiens, UniProt P68871+P69905, E7V); assay: Oxygen equilibrium analysis of hemolysate from compound-treated SS cells; type: cell-based; conditions: hemolysate after incubation of 5 mM compound with SS cells; for Hemolysate ΔP50: treated minus control
T1 construct: The compound-treated SS cells obtained in the preceding experiment (oxygen equilibrium studies with SS cells) were hemolyzed; endogenous in cells; host or cells: homozygous sickle red blood (SS) cells from patients with SCD; hemolysate of the compound-treated cells

HbS [4] = biological target: T1, HbS; assay: HbS adduct formation, cation-exchange HPLC of hemolysate from compound-treated SS cells; type: cell-based; conditions: 5 mM compound, HPLC of hemolysate after incubation with SS cells
SS cells [5] = assay: Antisickling studies with homozygous sickle red blood cells; type: cell-based, human; conditions: for inhibition at 5000 µM: Homo sapiens, Erythrocyte, read-out: Inhibition of sickling of SS cells
Experimental: Briefly, SS cells suspended in buffered saline solution, pH 7.4 (hematocrit of 10 %) were incubated at 37° C. with 4% oxygen in the presence of 5 mM compound. Aliquots (10 ul) of the suspensions were obtained after 5 hrs and fixed with 2% glutaraldehyde solution without exposure to air. Morphological analysis and percentage of SS cells that were not sickled were conducted using a computer-assisted image analysis system as described elsewhere (Hijiya, 1991).

SS cells [6] = assay: Effect of compounds on homozygous sickle red blood cell size (MCV); type: cell-based, human; conditions: for changes in cell volumes of SS cells: 1, 2, and 5 mM compound
Experimental: To study the effect of the compounds on the degree of hydration/dehydration of SS cells, the compound-treated SS cells obtained in the preceding experiment (antisickling studies with SS cells) were evaluated with a Hemavet Cell Analyzer to determine the mean corpuscular volume (MCV).

Tg sickle mice = assay: In vivo antisickling effect in transgenic sickle mice exposed to hypoxia; conditions: 5% oxygen
Description: In vivo antisickling effect of 5-HMF was investigated using transgenic (Tg) mice that produce human Hb S. Since the blood of wild type mice has an extremely right-shifted OEC (P50 of mouse blood: 40–44 mm Hg) as compared with the OEC of human blood (P50 of AA cells: 26.5 mm Hg; SS cells: 32 mm Hg), Tg sickle mice that produce approximately equal amounts of human and mouse […] and 100% human β^s-globin were used in this study. The P50 of these mice are between 26 and 34 mm Hg depending on the percentage of mouse β-globin. We used 5% oxygen (5% O2, 95% N2), because they develop pulmonary sequestration almost exclusively upon exposure of these mice to 5% O2. […] Upon exposure to hypoxia, we determine the percentage of sickled cells in the blood as well as the survival time. […] In the hypoxia experiments, the Tg sickle mice were exposed to hypoxia for up to 1 hr; any surviving mice at 1 hr were euthanized by cervical dislocation under anesthesia. In all cases, after the mouse died, it was immediately dissected. The heart, lungs, brain, liver, spleen, and kidneys were fixed in 10% phosphate-buffered formalin. Tissue samples were embedded in paraffin according to standard methods. Sections were cut and stained by a hematoxylin-eosin solution for light microscopy.

Hb [7] = biological target: T2, Hb (Homo sapiens, UniProt P69905); assay: Co-crystallization of compounds with Hb, X-ray crystallography; type: binding; parameters: Purified human adult Hb in 50 mM Bis Tris buffer, pH 6.8, was prepared from discarded human blood; from tissue; host or cells: discarded human blood; Hb purified in house as in Safo and Abraham, 2003; conditions: deoxy Hb
patients with SCD = conditions: cited from earlier work; for clinical toxicity: human, in vivo
Hb [8] = biological target: T2, Hb; conditions: Schiff base with N-terminal Val1 of T state Hb; cited from earlier work
[9] = cited from earlier work
[10] = 5 mM compound, P50 of treated AA cells minus P50 of control
[11] = 5 mM compound, 4% oxygen, 10% hematocrit, 5 hrs

## Cc1ccsc1C=O [3-Methyl-2-thiophenecarboxyaldehyde]
AA cells
  n50 (Hill coefficient at 50% saturation in the presence of compound): 2.35
  ΔP50 = P50d − P50c: −7.01 mmHg
  P50d (value in the presence of compound): 21.55 mmHg and 20.63 mmHg

## O=Cc1cc(Br)cs1 [4-Bromo-2-thiophenecarboxyaldehyde]
AA cells
  n50 (Hill coefficient at 50% saturation in the presence of compound): 2.41
  ΔP50 = P50d − P50c: −10.56 mmHg
  P50d (value in the presence of compound): 16.85 mmHg and 17.49 mmHg

## O=Cc1ccc(Br)s1 [5-Bromo-2-thiophenecarboxyaldehyde]
AA cells
  n50 (Hill coefficient at 50% saturation in the presence of compound): 2.35
  ΔP50 = P50d − P50c: −6.63 mmHg
  P50d (value in the presence of compound): 21.96 mmHg and 20.24 mmHg

## CCc1ccc(C=O)o1 [Compound 5EF, 5-Ethyl-2-furfuraldehyde]
AA cells; 5 mM compound
  n50 (Hill coefficient at 50% saturation): 1.77 ± 0.14
AA cells; 5 mM compound, 37° C.
  P50: 10.13 ± 0.75 mmHg
AA cells; [10]
  ΔP50: −15.71 mmHg
SS cells [1]
  predicted antisickling activities: lie between those of FUF and 5HMF

## O=Cc1ccc(CO)o1 [Compound 5HMF, 5-hydroxymethyl-2-furfuraldehyde]
AA cells; 1 mM compound
  n50 (Hill coefficient at 50% saturation): 2.08 ± 0.14
  ΔP50: −6.65 mmHg
  P50: 19.19 ± 1.51 mmHg
AA cells; 2 mM compound
  n50 (Hill coefficient at 50% saturation): 1.98 ± 0.08
  ΔP50: −10.80 mmHg
  P50: 15.04 ± 0.51 mmHg
AA cells; 5 mM compound
  n50 (Hill coefficient at 50% saturation): 1.88 ± 0.06
AA cells; 5 mM compound, 37° C.
  P50: 8.32 ± 0.40 mmHg
AA cells; [10]
  ΔP50: −17.52 mmHg
AA cells
  effect on the OEC of whole blood: able to shift the OEC to the left
SS cells [2]
  SS cells P50: 6.0 ± 1.2 mmHg
  SS cells ΔP50: −25.2 mmHg
HbS [3]
  Hemolysate P50: 1.8 ± 0.3 mmHg
  Hemolysate ΔP50: −9.4 mmHg
HbS [4]
  HbS adduct: 70% and 70 ± 10.0%
SS cells [5]; 5 mM
  inhibition of cell sickling, times more than FUF: ~2.5 times
SS cells [5]; [11]
  Inhibition of sickling of SS cells: 90%
  Sickling of SS cells: 10%
SS cells [6]; 1 mM compound
  MCV: 62.5 fL
SS cells [6]; 2 mM compound
  MCV: 61.0 fL
SS cells [6]; 5 mM compound
  MCV: 61.4 fL
SS cells [6]
  changes in cell volumes of SS cells: did not result in changes in cell volumes
Tg sickle mice; 5HMF 100 mg/kg
  percentage of sickled cells in the arterial blood: reduced the formation of POSCs; also recorded: reduced the percentage of sickled cells
Tg sickle mice; 5HMF pretreatment
  survival of more than half of the mice: > 25 min
  survival time under hypoxia compared to control: significantly prolonged the survival time; also recorded: prolonged the survival time significantly; also recorded: about four times longer
SS cells [1]; 1 mM compound, 4% oxygen
  Inhibition of sickling of SS cells: 13%
  Sickling of SS cells: 87%
SS cells [1]; 2 mM compound, 4% oxygen
  Inhibition of sickling of SS cells: 42%
  Sickling of SS cells: 58%
Hb [7]
  compound binding in T state co-crystals: only weak binding

## Cc1ccc(C=O)o1 [Compound 5MF, 5-Methyl-2-furfuraldehyde]
AA cells; 5 mM compound
  n50 (Hill coefficient at 50% saturation): 1.70 ± 0.06
AA cells; 5 mM compound, 37° C.
  P50: 9.68 ± 0.24 mmHg
AA cells; [10]
  ΔP50: −16.16 mmHg
SS cells [1]
  predicted antisickling activities: lie between those of FUF and 5HMF

## O=Cc1c(O)cccc1OCCCCC(=O)O [Compound 12C79]
Patients with SCD
  clinical toxicity: clinically non-toxic
Patients with SCD; intravenous infusion 40 mg/kg, patients with SCD
  compound-Hb adducts: more than 30%

## Cc1cc(C=O)cc(C)c1O [DMHB, 3,5-dimethyl-4-hydroxybenzaldehyde]
Hb [8]
  shift of the OEC: shift the OEC toward the left

## O=Cc1ccc(O)c(C(=O)O)c1 [FSA, 5-formylsalicylic acid]
Hb [8]
  shift of the OEC: shift the OEC toward the right

## O=Cc1ccco1 [FUF, 2-furfuraldehyde]
AA cells; 5 mM compound
  n50 (Hill coefficient at 50% saturation): 2.30 ± 0.01
AA cells; 5 mM compound, 37° C.
  P50: 14.49 ± 0.06 mmHg
AA cells; [10]
  ΔP50: −11.35 mmHg
SS cells [2]
  SS cells P50: 15.4 ± 1.7 mmHg
  SS cells ΔP50: −15.8 mmHg
HbS [3]
  Hemolysate P50: 5.3 ± 0.6 mmHg
  Hemolysate ΔP50: −5.9 mmHg
HbS [4]
  HbS adduct: 24% and 24 ± 5.7%
SS cells [5]; [11]
  Sickling of SS cells: 70%
  inhibition at 5000 µM: 30%
SS cells [6]; 1 mM compound
  MCV: 60.3 fL
SS cells [6]; 2 mM compound
  MCV: 60.0 fL
SS cells [6]; 5 mM compound
  MCV: 62.8 fL
SS cells [6]
  changes in cell volumes of SS cells: did not result in changes in cell volumes
SS cells [1]; 1 mM compound, 4% oxygen
  Sickling of SS cells: 100%
SS cells [1]; 2 mM compound, 4% oxygen
  Sickling of SS cells: 100%
SS cells [1]; Homo sapiens, Erythrocyte, 1 mM compound, 4% oxygen, read-out: Inhibition of sickling of SS cells
  inhibition at 1000 µM: 0%
SS cells [1]; Homo sapiens, Erythrocyte, 2 mM compound, 4% oxygen, read-out: Inhibition of sickling of SS cells
  inhibition at 2000 µM: 0%
Hb [7]
  compound binding in T state co-crystals: only weak binding

## CCOC(=O)C1CSC(c2ccc(CO)o2)N1 (stereo not shown) [MSDD1, 5-hydroxymethyl-2-furfural-thiazolidine-4-carboxylic acid ethyl ester]
AA cells
  effect on the OEC of whole blood: does not have effect on the OEC

## COc1cc(C=O)ccc1O [Vanillin, vanillin, reference compound]
AA cells; 5 mM compound
  n50 (Hill coefficient at 50% saturation): 1.98 ± 0.23
AA cells; 5 mM compound, 37° C.
  P50: 19.06 ± 1.98 mmHg
AA cells; [10]
  ΔP50: −6.78 mmHg
SS cells [2]
  SS cells P50: 17.7 ± 2.2 mmHg
  SS cells ΔP50: −13.5 mmHg
SS cells [5]; [11]
  Sickling of SS cells: 80%
  inhibition at 5000 µM: 20%
SS cells [6]; 5 mM compound
  MCV: 61.0 fL
[9]; species not stated
  acute oral LD50: 1580 mg/kg
[9]; unit taken from the 5HMF value in the same sentence
  LD50: 1580 mg/kg
Patients with SCD
  clinical toxicity: clinically non-toxic
